Reference: patent EP0029990A1, “Biphenylmethane derivative, methods for its production and pharmaceutical compositions containing it” (Byk Gulden Lomberg Chemische Fabrik GmbH, priority 1979, dated 1981)

Columns and labels:
[1] = Acute toxicity (LD50), intravenous administration, rat; details: in vivo
Source text: (§1) Ihre Toxizität ist geringer als die des aus einem Gemisch von Kondensationsprodukten aus m-Kresolsulfonsäuren und Formaldehyd bestehenden Handelsprodukts. In der nachstehenden Tabelle sind die bei intravenöser Verabreichung an Maus und Ratte ermittelten LDSo-Werte des Dinatriumsalzes der 2,2'-Dihydroxy-5,5'-methylendi-(p-toluolsulfonsäure) (A) und des mit Natriumhydroxid neutralisierten Handelsprodukts (B) aufgeführt.

[2] = Acute toxicity (LD50), intravenous administration, mouse; details: in vivo
Source text: as §1

Cc1cc(O)c(S(=O)(=O)O)cc1Cc1cc(S(=O)(=O)O)c(O)cc1C [A, Dinatrium-2,2'-dihydroxy-5,5'-methylendi-(p-toluolsulfonat)-monohydrat]
LD50 ([1]; Ratte ♀): 990 mg/kg
LD50 ([1]; Ratte ♂): 930 mg/kg
LD50 ([2]; Maus ♀): 1050 mg/kg
LD50 ([2]; Maus ♂): 1100 mg/kg
